Structures are written as SMILES.

A short description of the data set: in vitro. As to conditions: human, hela cells, % viability.
Regarding `CCOC(=O)c1nc2c(n1C)[C@H]1[C@H](O)[C@H](O)C[C@H]1C1(CCC1)N2` [CBK303241], the viability at 28.5 h, 10 µM came out at 107%.

In the case of `CC(=O)[C@H]1CC[C@H]2[C@@H]3CC[C@H]4CC5(CC[C@]4(C)[C@H]3CC[C@]12C)N=C1C=C(C(C)(C)C)ON1C1C=CCC15` (some centres unmarked) [CBK303246], the viability at 28.5 h, 10 µM was determined as 42.9%. Turning to `Nc1nc(O)c2c(n1)NC1(CCC1)[C@@H]1C[C@@H](O)[C@@H](O)[C@H]21` [CBK303248], the viability at 28.5 h, 10 µM turned out to be 118%. For `COC(=O)c1csc2c1N[C@H](C1CC3C=CC1C3)[C@@H]1CCO[C@H]21` (some centres unmarked) [CBK303251], the viability at 28.5 h, 10 µM is 94.9%. In the case of `CC(C)(C)C1=CC2=NC3(CCCCCC3)[C@@H]3C[C@@H](O)[C@@H](O)[C@@H]3N2O1` [CBK303252], the viability at 28.5 h, 10 µM was determined as 91.9%. For the molecule `Cc1c2c(n(-c3ccccc3)[n+]1[O-])NC1(CCC1)[C@@H]1C[C@@H](O)[C@@H](O)[C@H]21` [CBK303253], the viability at 28.5 h, 10 µM is 91.5%. As for `CC(C)(C)C1=CC2=NC3(CCCCCCCCCCC3)[C@@H]3C[C@@H](O)[C@@H](O)[C@@H]3N2O1` [CBK303254], the viability at 28.5 h, 10 µM worked out at 113%. Under `COC(=O)c1csc2c1NC1(CCC1)[C@@H]1C[C@@H](O)[C@@H](O)[C@H]21` [CBK303255] stands 119%; under `CC(C)(C)C1=CC2=NC3(CCCCCCC3)[C@@H]3C[C@@H](O)[C@@H](O)[C@@H]3N2O1` [CBK303256], 113%. For the molecule `CC1=CC2=NC3(CCC3)[C@@H]3C[C@@H](O)[C@@H](O)[C@@H]3N2O1` [CBK303257], the viability at 28.5 h, 10 µM was determined as 92%. As to `CC(C)(C)C1=CC2=NC3(CCC3)C3C[C@](O)(COCc4ccccc4)[C@@H](O)[C@@H]3N2O1` (some centres unmarked) [CBK303259], the viability at 28.5 h, 10 µM is 102%. In the case of `CC(C)(C)C1=CC2=NC3(CCC3)C3C[C@@H](O)[C@@H](O)[C@]3(COCc3ccccc3)N2O1` (some centres unmarked) [CBK303260], the viability at 28.5 h, 10 µM amounted to 99.6%. Under `CC(C)(C)C1=CC2=NC3(CCC3)C3C[C@](O)(Cc4ccccc4)[C@@H](O)[C@@H]3N2O1` (some centres unmarked) [CBK303261] stands 95.7%.

As for `CC(C)(C)C1=CC2=NC3(CCC3)C3C[C@](O)(CO)[C@@H](O)[C@@H]3N2O1` (some centres unmarked) [CBK303262], the viability at 28.5 h, 10 µM is 91.1%. For the molecule `Cn1c2c(c(=O)n(C)c1=O)[C@@H]1C(C[C@](O)(CO)[C@H]1O)C1(CCC1)N2` (some centres unmarked) [CBK303264], the viability at 28.5 h, 10 µM came to 118%.

`CCC(=O)N1CCC(NCc2ccc(OCC(N)=O)cc2)C(C)C1` (centres unmarked) [CBK303989]: the viability at 28.5 h, 10 µM was 77.6%. Under `CC(C)(C)SCCOC(=O)C1CC(=O)N(Cc2ccccn2)C1` (centres unmarked) [CBK303991] stands 90.8%; under `CCC1c2ccsc2CCN1CC(O)COCc1ccco1` (centres unmarked) [CBK303992], 97.3%. Consider `COc1ccc2[nH]cc(C3CCN(Cc4cc(C)no4)CC3)c2c1` [CBK303996], for which the viability at 28.5 h, 10 µM stood at 91.5%. On to `Cn1ccnc1CN1CCCN(C(=O)c2cccc(C#N)c2)CC1` [CBK303998], for which the viability at 28.5 h, 10 µM was determined as 85.2%.

`Cc1nc(C)n(CC2CN(Cc3cn4ccccc4n3)CCO2)n1` (centres unmarked) [CBK303999]: the viability at 28.5 h, 10 µM was found to be 97.1%. To `Cc1nc(CCNCc2c(C(C)C)nn(C)c2N(C)C)cs1` [CBK304002] belongs 98.8%. In the case of `Clc1ccc(CN2CCC(NCCCn3cccn3)CC2)cc1` [CBK304004], the viability at 28.5 h, 10 µM is 84.2%.

Turning to `Cc1nc(C)c(C(C)NCc2c(C(C)C)nn(C)c2N(C)C)s1` (centres unmarked) [CBK304005], the viability at 28.5 h, 10 µM worked out at 74.3%. Under `Cc1nc(C)n(CC2CCCCN2Cc2cn3ccccc3n2)n1` (centres unmarked) [CBK304008] stands 111%; under `N#Cc1ccc(CN2CCCN(C(=O)c3cccc(F)c3)CC2)cc1` [CBK304010], 96.2%. Take `CC(=O)Nc1cccc(CN(CCCO)C2CCc3ccccc32)c1` (centres unmarked) [CBK304011]: the viability at 28.5 h, 10 µM is 95%. With `c1ccc(C(NCc2cnc(-c3cnccn3)s2)C2CCC2)cc1` (centres unmarked) [CBK304016], the viability at 28.5 h, 10 µM came to 106%. `CC1CN(c2cc(CNCc3cnn4ccccc34)ccn2)CCO1` (centres unmarked) [CBK304018]: the viability at 28.5 h, 10 µM is 84.1%.

For the origin of these results see paper PMC12040169 (PLOS Biology, 2025).
